Data on 3 compounds can be found in US6777415B2, “Methods of inducing cancer cell death and tumor regression” (priority 2000, dated 2004).

For assay [1], the system named is Ras-transformed cells. To be noted: Ras-transformed cells (Alessi et al., 1995); cited from earlier work.
Assay [2] relates to human tumor cell lines. Conditions: variety of human tumor cell lines, in vitro (Liu et al., 1998); cited from earlier work.
For assay [3], the system named is MAPK pathway. Put plainly: Time course of MAPK pathway inhibition after treatment. It is filed as cell-based. An excerpt:
(2) A “Ras signaling pathyway inhibitor” is defined herein as an agent that blocks the activity of any protein in the signal transduction pathway shown in FIG. 1. A particularly preferred Ras signaling pathway inhibitor is a “MEK inhibitor”, which is defined herein as an agent that blocks the in vitro enzyme activity of a MEK (MAPK/ERK kinase) protein (preferably inhibiting MEK1 and MEK2), and thus blocks the activation of a MAPK protein as evidenced by a block in the phosphorylation of the MAPK protein. This can be detected by western blot analysis for phosphorylated MAPK as described in, e.g., Dudley et al., Proc Natl Acad Sci. 92:7686-7689 (1995), and Favata et al., J Bio Chem. 273:18623-32(1998).
“Sustained effect” is defined herein as a prolonged/enhanced apoptotic response to combination treatment with a FPT I and a MEK1,2 inhibitor in comparison to single treatment alone. The consequences of a “sustained effect” can be monitored either by measurement of MAPK activity or cell death or apoptosis, as described in previously. The effective time course for inhibition of MAPK pathway by the individual drugs is dose dependent. […] (See, e.g., FIG. 6.

Assay [4] relates to human tumor cell lines as xenografts. Conditions: immuno-compromised mice (Liu et al., 1998); cited from earlier work.
For assay [5], the system named is MEK. Conditions: Favata et al., 1998; cited from earlier work.

With `COc1cccc(-c2cc(=O)c3ccccc3o2)c1N` [PD098059], the “effect on growth factor-mediated proliferation and anchorage-independent growth” value in assay [1] is on record as “blocks”.
Take `NC(=O)N1CCC(CC(=O)N2CCC(C3c4ncc(Br)cc4CCc4cc(Cl)cc(Br)c43)CC2)CC1` (stereo not drawn) [SCH 66336]: the “inhibition of anchorage-independent growth” value in assay [2] is “inhibition of anchorage-independent growth”. In addition, in assay [3], the “duration of the MAPK inhibitory effect after treatment” value is at most 72 h. Besides, in assay [3] (dose dependent), the “time of optimal MAPK pathway inhibition after treatment” value fell in the range of 12 to 18 h. Also, in assay [4], the “inhibition of growth as xenografts” value is recorded as “inhibition”.
Take `N#CC(=C(/N)Sc1ccccc1N)/C(C#N)=C(\N)Sc1ccccc1N` [U0126]: in assay [5], the “affinity of binding to MEK relative to PD098059” value is given as “higher affinity than PD098059”.
